{
  "source": "patent US20180369166A1",
  "about": "“GARCINOL COMPOSITIONS FOR THERAPEUTIC MANAGEMENT OF ENDOPLASMIC RETICULUM STRESS” (priority 2017, published 2018)",
  "key": {"[1]": {"test_system": "primary mouse hepatocytes", "experiment": "Thapsigargin induced protein aggregation in primary mouse hepatocytes (thioflavin staining)", "format": "cell-based", "details": "10 μg/ml; 1 μM Thapsigargin; FIG. 7c"}, "[2]": {"test_system": "Human Liver cell line (HepG2)", "experiment": "Thapsigargin induced protein aggregation in human liver cells (thioflavin staining, flow cytometry)", "format": "cell-based", "details": "10 μg/ml, 1 μM Thapsigargin, FIGS. 7a and 7b", "method": "(§1) HepG2—human liver cell line, primary mouse hepatocytes. Min6—Mouse pancreatic beta cell line, 3T3 L1—mouse preadipocytes wee used for the experiments. Cells were maintained in DMEM containing 25 mM glucose with 10% heat-inactivated fetal calf serum with antibiotics at 37° C. and 5% CO2. When the cells were 70-80% confluent, they were trypsinized, washed and seeded in 96 well plates at a density of 5×10^3 cells per well. Stress was induced by Thapsigargin(1 uM) for 4 hours, glucose (50 and 100 mM) and alcohol (1000 mM) or paracetamol (4 mM) for 72 hours. Garcinol was added along with stressor as prophylactic treatment. As a therapeutic treatment, cells were exposed to stress agent 24 hours following which Garcinol was added to the cells. Protection was assessed by SRB assay after 72 hours of treatment\nIRE1α phosophorylation levels can be assessed by measuring spliced. XBP-1 product by RT PCR. PERK activation is measured by its phosphorylation levels or by measuring the ATF4 mRNA levels. Activation of ATF4 leads to increased transcription of a network of genes, including those encoding ER chaperones, such as BiP/GRP78.\nEffect of Garcinol on Thapsigargin induced ER stress in human liver cells was also evaluated. […] Treated and untreated cells were analysed by Flow cytometry and RT PCR."}, "HepG2 Cells": {"test_system": "HepG2 Cells", "experiment": "Alcohol induced toxicity in HepG2 cells (SRB assay)", "format": "cell-based, human", "details": "10 μg/ml; 1000 mM Ethanol for 72 hours; FIG. 6", "method": "as §1\nFor evaluating alcohol induced toxicity, HepG2 Cells were exposed to 1000 mM of Ethanol for 72 hours in the presence of different concentrations of Garcinol and protection was assessed by SRB assay. Garcinol conferred hepatoprotection against alcohol induced toxicity by 47% at concentration of 10 μg/ml (FIG. 6)."}},
  "data": [
    {"smiles": "C=C(C)[C@@H](CC=C(C)C)C[C@@]12C[C@@H](CC=C(C)C)C(C)(C)[C@@](CC=C(C)C)(C(=O)C(C(=O)c3ccc(O)c(O)c3)=C1O)C2=O", "note": "[Garcinol]", "values": [
      {"measurement": "reduction in protein aggregation in primary mouse hepatocytes", "setting": "[1]", "result": 70.4, "unit": "%"},
      {"measurement": "reduction in protein aggregation in human liver cells", "setting": "[2]", "result": 44.4, "unit": "%"},
      {"measurement": "hepatoprotection against alcohol induced toxicity", "setting": "HepG2 Cells", "result": 47, "unit": "%"}
    ]}
  ]
}
